Test results as given in patent publication US20240197677A1 (VIVIER CANADA INC., priority 2016, published 2024).

What was measured:
[1] = cited from earlier work
[2] = tested on: EpiDermFT™ (EFT-400) human in vitro tissue model
Experimental: EFT-400 tissues were treated with test compound every 48 hours for 4, 7 and 10 days.
Epidermal thickness was assessed by measuring 10 random regions of the Hematoxylin and Eosin (H&E) stained tissue sections using OlyVIA™ software.

| Structure (SMILES) | pKa [1] | Thickness of H&E stained tissue sections (FIGS. 1A-F) ([2]; 0.1% Putrescine for 4 days) | Epidermis Thickness, Tissue1, Av. ([2]; 0.1% Test Article, EFT-400 Tissue1, average of 10 regions) | Epidermis Thickness, Tissue2, Av. ([2]; 0.1% Test Article, EFT-400 Tissue2, average of 10 regions) | Epidermis Thickness, Tissue3, Av. ([2]; 0.1% Test Article, EFT-400 Tissue3, average of 10 regions) | Epidermis Thickness, Av. of three tissues ([2]; 0.1% Test Article, average over Tissue1-3 (untreated 80.264 μm)) | Average increase of epidermal thickness versus untreated tissues ([2]; 0.1% putrescine) | Epidermal thickness, average ([2]; 0.1% putrescine basolaterally in culture medium, 10 random regions of H&E sections) | Epidermal tissue thickness, visual (Cytokeratin 10 / desmoplakin-1 immunostaining) ([2]; after 4 days, 0.1% Putrescine) | Tissue morphology ([2]; day 4, 0.1% Putrescine) |
| --- | --- | --- | --- | --- | --- | --- | --- | --- | --- | --- |
| O=C1O[C@H]([C@@H](O)CO)C(O)=C1O [Vitamin C, L-ascorbic acid, reference compound] | around 4.17 |  |  |  |  |  |  |  |  |  |
| Cl.Cl.NCCCCN [putrescine, 1,4-Diaminobutane dihydrochloride] | 10.51 | increased thickness | 113.846 μm | 117.160 μm | 121.676 μm | 117.561 μm | over 46% | 117.561 μm | visually appear thicker than the untreated control tissues | consistent with healthy tissue |
